In patent publication US10786582B2, “Gd(III)-dithiolane gold nanoparticle conjugates” (Northwestern University, priority 2015, dated 2020):

Assay: r1 relaxivity of dt-Gd(III) nanoconjugates, Bruker minispec 60 MHz
Format: physicochemical
Conditions: per Gd(III); 60 MHz (1.41 T), 37° C., water plus 0.01% tween 20
Method: A stock solution of backfilled dt-Gd(III) SNA conjugates was made (700 uL). This stock was serially diluted four times for a total of five solutions. Solutions were heated to 37° C. and two hundred μL of each concentration was placed into a Bruker minispec mq60 NMR spectrometer (60 MHz) for measurement of T1 relaxation time. Data were collected using an inversion recovery pulse sequence using 4 averages, a 15 s repetition time and 10 data points. The remaining volumes of each solution were utilized for ICP analysis of [Gd(III)]. The inverse of the longitudinal relaxation time (1/T1, s−1) was plotted versus the Gd(III) concentration (mM). […] Relaxivities of DNA-Gd@spheres, Gd(III)-DNA and complex 5 were collected by the analogous procedure (Table 3, FIG. 7).

r1 relaxivity ionic: 4.9 mM⁻¹ s⁻¹
Substance: 2,2′2″(10(3-(((1-(5-(1,2-dithiolan-3-yl)pentyl)-1,2,3-triazol-4-yl)methyl)amino)-3-oxopropyl)-1,4,7,10-tetraazacyclododecyl-gadolinium(III) complex [dt-Gd(III)]
